One series concerns pLAI reporter virus. The series can be described thus: microbe, parasite or virus in culture. Format: cell-based, HIV. To be noted: Human immunodeficiency virus 1, MT4, 72 h.
The next series in a line: in vitro. The settings on record: human, uninfected MT-4 cells.
The next series deals with HIV-1 (IIIB). Nature of the series: microbe, parasite or virus in culture. The settings on record: Human immunodeficiency virus 1, IIIB, MT4, 120 h, read-out: MT4 EC50. It is filed as cell-based.
Where [1] appears, read: HIV-1 (IIIB) in MT-4 cells, 5 days incubation, Cell Titer Glo.

Where two headings read alike, the source gives them in different places.

By EC50 is commonly meant the concentration needed to bring the measured effect to its halfway point. Broadly, the CC50 is the concentration at which the toxic effect on the cells reaches its halfway point. Low values mean greater toxicity to the cells, high ones lower toxicity to the cells. On to `CC1=NO[C@]2(CC[C@H](C)N3C[C@H]2n2cc(C(=O)NCc4ccc(F)cc4F)c(=O)c(O)c2C3=O)C1C` (stereo partly drawn) [Example 23, (3′S,5R,7′R)—N-(2,4-difluorobenzyl)-12′-hydroxy-3,3′,4-trimethyl-1′,11′-dioxo-1′,4′,5′,11′-tetrahydro-3′H,4H,7′H-spiro[isoxazole-5,6′-[2,7]methanopyrido[1,2-a][1,4]diazonine]-10′-carboxamide], for which the EC50 in the series on pLAI reporter virus (read-out: RLUC 50% HS EC50) came to 0.9 nM; in the series with pLAI reporter virus (read-out: RLUC CCM EC50), 0.5 nM; with HIV-1 (IIIB) (setting [1]) it was 1.2 nM. Further, in the series “in vitro”, the cytotoxic concentration (CC50) at 5 days is no less than 50000 nM.

For the compound `C[C@H]1CC[C@]2(CC(=O)NO2)[C@H]2CN1C(=O)c1c(O)c(=O)c(C(=O)NCc3c(F)cc(F)cc3F)cn12` [Example 101, (3′S,5S,7′R)-12′-hydroxy-3′-methyl-1′,3,11′-trioxo-N-(2,4,6-trifluorobenzyl)-1′,4′,5′,11′-tetrahydro-3′H,7′H-spiro[isoxazolidine-5,6′-[2,7]methanopyrido[1,2-a][1,4]diazonine]-10′-carboxamide], the EC50 with pLAI reporter virus (read-out: RLUC 50% HS EC50) was determined as 408 nM; with pLAI reporter virus (read-out: RLUC CCM EC50) it was 34 nM; with HIV-1 (IIIB) (setting [1]), 98.1 nM. Also, in “in vitro”, the CC50 at 5 days is no less than 50000 nM.

`CC1=NO[C@@]2(CC[C@H](C)N3C[C@H]2n2cc(C(=O)NCc4ccc(F)cc4F)c(=O)c(O)c2C3=O)N1C` [Example 149a, (3′S,5R,7′R)—N-(2,4-difluorobenzyl)-12′-hydroxy-3,3′,4-trimethyl-1′,11′-dioxo-1′,4′,5′,11′-tetrahydro-3′H,4H,7′H-spiro[[1,2,4]oxadiazole-5,6′-[2,7]methanopyrido[1,2-a][1,4]diazonine]-10′-carboxamide]: the EC50 is 4.8 nM in the series with pLAI reporter virus (read-out: RLUC 50% HS EC50), 0.8 nM in the series on pLAI reporter virus (read-out: RLUC CCM EC50) and 2 nM in the series on HIV-1 (IIIB) (setting [1]). In addition, the CC50 at 5 days in “in vitro” is no less than 50000 nM.

As for `CCCC1=NO[C@@]2(CC[C@H](C)N3C[C@H]2n2cc(C(=O)NCc4c(F)cc(F)cc4F)c(=O)c(O)c2C3=O)C1` [Example 68, (3′S,5S,7′R)-12′-hydroxy-3′-methyl-1′,11′-dioxo-3-propyl-N-(2,4,6-trifluorobenzyl)-1′,4′,5′,11′-tetrahydro-3′H,4H,7′H-spiro[isoxazole-5,6′-[2,7]methanopyrido[1,2-a][1,4]diazonine]-10′-carboxamide], the concentration for a half-maximal effect (EC50) in the series with pLAI reporter virus (read-out: RLUC 50% HS EC50) came out at 85.4 nM; with pLAI reporter virus (read-out: RLUC CCM EC50), 0.3 nM; in the series on HIV-1 (IIIB) (setting [1]) it was 1.2 nM. In “in vitro”, this compound returned a half-maximal cytotoxic concentration (CC50) at 5 days of 15700 nM.

For the compound `C[C@H]1CC[C@@]2(CC(=O)N(Cc3ccc(F)cc3)O2)[C@H]2CN1C(=O)c1c(O)c(=O)c(C(=O)NCc3c(F)cc(F)cc3F)cn12` [Example 102, (3′S,5R,7′R)-2-(4-fluorobenzyl)-12′-hydroxy-3′-methyl-1′,3,11′-trioxo-N-(2,4,6-trifluorobenzyl)-1′,4′,5′,11′-tetrahydro-3′H,7′H-spiro[isoxazolidine-5,6′-[2,7]methanopyrido[1,2-a][1,4]diazonine]-10′-carboxamide], the values for the EC50 in the series on pLAI reporter virus (read-out: RLUC 50% HS EC50), in the series on pLAI reporter virus (read-out: RLUC CCM EC50) and with HIV-1 (IIIB) (setting [1]) were 30 nM, 2 nM and 11.5 nM, respectively. The compound also returned a CC50 at 5 days in “in vitro” of 8790 nM.

On to `CCC1=NO[C@@]2(CC[C@H](C)N3C[C@H]2n2cc(C(=O)NCc4ccc(F)cc4F)c(=O)c(O)c2C3=O)O1` [Example 94, (3′S,5R,7′R)—N-(2,4-difluorobenzyl)-3-ethyl-12′-hydroxy-3′-methyl-1′,11′-dioxo-1′,4′,5′,11′-tetrahydro-3′H,7′H-spiro[[1,4,2]dioxazole-5,6′-[2,7]methanopyrido[1,2-a][1,4]diazonine]-10′-carboxamide], for which the 50% effective concentration (EC50) stood at 684 nM with pLAI reporter virus (read-out: RLUC 50% HS EC50), 0.2 nM in the series with pLAI reporter virus (read-out: RLUC CCM EC50) and 1 nM in the series on HIV-1 (IIIB) (setting [1]). Besides, the CC50 at 5 days in the series “in vitro” is 30200 nM.

As for `CC1=NO[C@@]2(CC[C@H](C)N3C[C@H]2n2cc(C(=O)NCc4ccc(F)cc4F)c(=O)c(O)c2C3=O)[C@H]1C` [Example 26, (3′S,4S,5S,7′R)—N-(2,4-difluorobenzyl)-12′-hydroxy-3,3′,4-trimethyl-1′,11′-dioxo-1′,4′,5′,11′-tetrahydro-3′H,4H,7′H-spiro[isoxazole-5,6′-[2,7]methanopyrido[1,2-a][1,4]diazonine]-10′-carboxamide], the EC50 in the series on pLAI reporter virus (read-out: RLUC 50% HS EC50) was found to be 9.5 nM; with pLAI reporter virus (read-out: RLUC CCM EC50) it was 0.3 nM; in the series on HIV-1 (IIIB) (setting [1]), 0.5 nM. In addition, the CC50 at 5 days in “in vitro” turned out to be 13000 nM.

For the compound `CSC1=NO[C@@]2(CC[C@H](C)N3C[C@H]2n2cc(C(=O)NCc4c(F)cc(F)cc4F)c(=O)c(O)c2C3=O)C1` [Example 43, (3′S,5S,7′R)-12′-hydroxy-3′-methyl-3-(methylthio)-1′,11′-dioxo-N-(2,4,6-trifluorobenzyl)-1′,4′,5′,11′-tetrahydro-3′H,4H,7′H-spiro[isoxazole-5,6′-[2,7]methanopyrido[1,2-a][1,4]diazonine]-10′-carboxamide], the EC50 in the series with pLAI reporter virus (read-out: RLUC 50% HS EC50) is 279 nM; in the series on pLAI reporter virus (read-out: RLUC CCM EC50) it was 1.5 nM; in the series on HIV-1 (IIIB) (setting [1]) it was 6.1 nM. Besides, the CC50 at 5 days in the series “in vitro” stood at 33400 nM.

As to `C[C@H]1CC[C@]2(CC(=O)N(Cc3cccnc3)O2)[C@H]2CN1C(=O)c1c(O)c(=O)c(C(=O)NCc3c(F)cc(F)cc3F)cn12` [Example 160, (3′S,5S,7′R)-12′-hydroxy-3′-methyl-1′,3,11′-trioxo-2-(pyridin-3-ylmethyl)-N-(2,4,6-trifluorobenzyl)-1′,4′,5′,11′-tetrahydro-3′H,7′H-spiro[isoxazolidine-5,6′-[2,7]methanopyrido[1,2-a][1,4]diazonine]-10′-carboxamide], the EC50 is 0.5 nM with pLAI reporter virus (read-out: RLUC 50% HS EC50), 1.6 nM in the series with pLAI reporter virus (read-out: RLUC CCM EC50) and 1.5 nM in the series on HIV-1 (IIIB) (setting [1]). This compound also came in with a CC50 at 5 days in the series “in vitro” of no less than 50000 nM.

Consider `C[C@H]1CC[C@]2(CC(=O)N(Cc3cnn(C)n3)O2)[C@H]2CN1C(=O)c1c(O)c(=O)c(C(=O)NCc3c(F)cc(F)cc3F)cn12` [Example 104, (3′S,5S,7′R)-12′-hydroxy-3′-methyl-2-((2-methyl-2H-1,2,3-triazol-4-yl)methyl)-1′,3,11′-trioxo-N-(2,4,6-trifluorobenzyl)-1′,4′,5′,11′-tetrahydro-3′H,7′H-spiro[isoxazolidine-5,6′-[2,7]methanopyrido[1,2-a][1,4]diazonine]-10′-carboxamide], for which the EC50 was determined as 0.3 nM in the series on pLAI reporter virus (read-out: RLUC 50% HS EC50), 0.9 nM in the series on pLAI reporter virus (read-out: RLUC CCM EC50) and 2.6 nM in the series on HIV-1 (IIIB) (setting [1]). Besides, the CC50 at 5 days in the series “in vitro” was no less than 50000 nM.

With `C[C@H]1CC[C@]2(CC(CO)=NO2)[C@H]2CN1C(=O)c1c(O)c(=O)c(C(=O)NCc3ccc(F)cc3F)cn12` [Example 16, (3′S,5S,7′R)—N-(2,4-difluorobenzyl)-12′-hydroxy-3-(hydroxymethyl)-3′-methyl-1′,11′-dioxo-1′,4′,5′,11′-tetrahydro-3′H,4H,7′H-spiro[isoxazole-5,6′-[2,7]methanopyrido[1,2-a][1,4]diazonine]-10′-carboxamide], the EC50 is 52.9 nM with pLAI reporter virus (read-out: RLUC 50% HS EC50), 2.8 nM with pLAI reporter virus (read-out: RLUC CCM EC50) and 2.6 nM in the series on HIV-1 (IIIB) (setting [1]). It took 49400 nM to reach half-maximal cytotoxicity in the series “in vitro” (CC50 at 5 days).

On to `COC1=NO[C@@]2(CC[C@@H](C)N3C[C@H]2n2cc(C(=O)NCc4c(F)cc(F)cc4F)c(=O)c(O)c2C3=O)C1` [Example 97, (3′R,5S,7′R)-12′-hydroxy-3-methoxy-3′-methyl-1′,11′-dioxo-N-(2,4,6-trifluorobenzyl)-1′,4′,5′,11′-tetrahydro-3′H,4H,7′H-spiro[isoxazole-5,6′-[2,7]methanopyrido[1,2-a][1,4]diazonine]-10′-carboxamide], for which the values for the 50% effective concentration (EC50) in the series on pLAI reporter virus (read-out: RLUC 50% HS EC50), with pLAI reporter virus (read-out: RLUC CCM EC50) and in the series with HIV-1 (IIIB) (setting [1]) were 1.8 nM, 0.5 nM and 2.5 nM, respectively. This compound also displayed a CC50 at 5 days in “in vitro” of 10400 nM.

`C[C@H]1CC[C@@]2(COC(Cc3ccccc3)O2)[C@H]2CN1C(=O)c1c(O)c(=O)c(C(=O)NCc3c(F)cc(F)cc3F)cn12` (stereo partly drawn) [Example 136, (3′S,4S,7′R)-2-benzyl-12′-hydroxy-3′-methyl-1′,11′-dioxo-N-(2,4,6-trifluorobenzyl)-1′,4′,5′,11′-tetrahydro-3′H,7′H-spiro[[1,3]dioxolane-4,6′-[2,7]methanopyrido[1,2-a][1,4]diazonine]-10′-carboxamide]: the EC50 in the series on pLAI reporter virus (read-out: RLUC 50% HS EC50) amounted to 8.7 nM; in the series with pLAI reporter virus (read-out: RLUC CCM EC50) it was 1.7 nM; in the series on HIV-1 (IIIB), 5.8 nM. Besides, in the series “in vitro”, the midpoint of cytotoxicity, the CC50 at 5 days, lay at 16600 nM.

Turning to `CC1=NO[C@@]2(CC[C@H](CF)N3C[C@H]2n2cc(C(=O)NCc4c(F)cc(F)cc4F)c(=O)c(O)c2C3=O)C1` [Example 54, (3′R,5S,7′R)-3′-(fluoromethyl)-12′-hydroxy-3-methyl-1′,11′-dioxo-N-(2,4,6-trifluorobenzyl)-1′,4′,5′,11′-tetrahydro-3′H,4H,7′H-spiro[isoxazole-5,6′-[2,7]methanopyrido[1,2-a][1,4]diazonine]-10′-carboxamide], the EC50 in the series with pLAI reporter virus (read-out: RLUC 50% HS EC50) was 53.7 nM; with pLAI reporter virus (read-out: RLUC CCM EC50) it was 0.3 nM; in the series with HIV-1 (IIIB) (setting [1]) it was 0.7 nM. Besides, the CC50 at 5 days in “in vitro” came to 27300 nM.

`C[C@H]1CC[C@]2(CC(N(C)C)=NO2)[C@H]2CN1C(=O)c1c(O)c(=O)c(C(=O)NCc3c(F)cc(F)cc3F)cn12` [Example 52, (3′S,5S,7′R)-3-(dimethylamino)-12′-hydroxy-3′-methyl-1′,11′-dioxo-N-(2,4,6-trifluorobenzyl)-1′,4′,5′,11′-tetrahydro-3′H,4H,7′H-spiro[isoxazole-5,6′-[2,7]methanopyrido[1,2-a][1,4]diazonine]-10′-carboxamide]: the EC50 came to 6.2 nM in the series on pLAI reporter virus (read-out: RLUC 50% HS EC50), 0.3 nM with pLAI reporter virus (read-out: RLUC CCM EC50) and 0.9 nM with HIV-1 (IIIB). In addition, the CC50 at 5 days in “in vitro” was determined as 27000 nM.

With `CC1=NCC2(CC[C@H](C)N3C[C@H]2n2cc(C(=O)NCc4ccc(F)cc4F)c(=O)c(O)c2C3=O)O1` (stereo partly drawn) [Example 56, (3′S,7′R)—N-(2,4-difluorobenzyl)-12′-hydroxy-2,3′-dimethyl-1′,11′-dioxo-1′,4′,5′,11′-tetrahydro-3′H,4H,7′H-spiro[oxazole-5,6′-[2,7]methanopyrido[1,2-a][1,4]diazonine]-10′-carboxamide], the EC50 with pLAI reporter virus (read-out: RLUC 50% HS EC50) is 5 nM; with pLAI reporter virus (read-out: RLUC CCM EC50) it was 3.4 nM; with HIV-1 (IIIB) (setting [1]), 6.2 nM. In “in vitro”, this compound came in with a CC50 at 5 days of no less than 50000 nM.

The record behind these values is patent publication US20250115620A1, “BRIDGED TRICYCLIC CARBAMOYLPYRIDONE COMPOUNDS AND USES THEREOF” (Gilead Sciences, Inc., priority 2022, published 2025).
